Patent US20250289787A1, “HERBICIDAL 2-OXO-NICOTINIC ACID DERIVATIVES” (SYNGENTA CROP PROTECTION AG, priority 2022, published 2025)

Columns and labels:
Type in all cases: in vivo
[1] = tested on: Amaranthus palmeri (AMAPA); assay: Pre-emergence test, herbicidal damage; conditions: 1000 g/ha unless otherwise stated, evaluated after 13 days, five-point scale
[2] = tested on: Amaranthus retoflexus (AMARE); assay: Pre-emergence test, herbicidal damage; conditions: 1000 g/ha unless otherwise stated, evaluated after 13 days, five-point scale
[3] = tested on: Echinochloa crus-galli (ECHCG); assay: Pre-emergence test, herbicidal damage; conditions: 1000 g/ha unless otherwise stated, evaluated after 13 days, five-point scale
Zea mays (ZEAMX) [4] = assay: Pre-emergence test, herbicidal damage; set-up: key: 5=81-100%; 4=61-80%; 3=41-60%; 2=21-40%; 1=1-20%; 0=no damage to the plant; -=not tested; conditions: 1000 g/ha unless otherwise stated, evaluated after 13 days, five-point scale
[5] = tested on: Ipomoea hederacea (IPOHE); assay: Pre-emergence test, herbicidal damage; set-up: key: 5=81-100%; 4=61-80%; 3=41-60%; 2=21-40%; 1=1-20%; 0=no damage to the plant; -=not tested; conditions: 1000 g/ha unless otherwise stated, evaluated after 13 days, five-point scale
Setaria faberi (SETFA) [6] = assay: Pre-emergence test, herbicidal damage; set-up: key: 5=81-100%; 4=61-80%; 3=41-60%; 2=21-40%; 1=1-20%; 0=no damage to the plant; -=not tested; conditions: 1000 g/ha unless otherwise stated, evaluated after 13 days, five-point scale
[7] = tested on: Amaranthus palmeri (AMAPA); assay: Post-emergence test, herbicidal damage; set-up: key: 5=81-100%; 4=61-80%; 3=41-60%; 2=21-40%; 1=1-20%; 0=no damage to the plant; -=not tested; conditions: sprayed after 8 days cultivation, 1000 g/ha unless otherwise stated, evaluated after 13 days, five-point scale
Experimental: (§1) Seeds of a variety of test species are sown in standard soil in pots Amaranthus palmeri (AMAPA), (Amaranthus retoflexus (AMARE), Echinochloa crus-galli (ECHCG), Zea mays (ZEAMX), Ipomoea 5 hederacea (IPOHE), and Setaria faberi (SETFA). After 8 days cultivation under controlled conditions in a glasshouse (at 24° C./16° C., day/night; 14 hours light; 65% humidity), the plants are sprayed with an aqueous spray solution derived from the formulation of the technical active ingredient in acetone/water (50:50) solution containing 0.5% Tween 20 (polyoxyethelyene sorbitan monolaurate, CAS RN 9005-64-5). Compounds are applied at 1000 g/ha unless otherwise stated. The test plants are then grown in a glasshouse under controlled conditions in a glasshouse (at 24° C./16° C., day/night; 14 hours light; 65% humidity) and watered twice daily. After 13 days the test is evaluated for the percentage damage caused to the plant. The biological activities are shown in the following table on a five-point scale (5=81-100%; 4=61-80%; 3=41-60%; 2=21-40%; 1=1-20%; 0=no damage to the plant; -=not tested).

[8] = tested on: Amaranthus retoflexus (AMARE); assay: Post-emergence test, herbicidal damage; set-up: key: 5=81-100%; 4=61-80%; 3=41-60%; 2=21-40%; 1=1-20%; 0=no damage to the plant; -=not tested; conditions: sprayed after 8 days cultivation, 1000 g/ha unless otherwise stated, evaluated after 13 days, five-point scale
Experimental: as §1

[9] = tested on: Echinochloa crus-galli (ECHCG); assay: Post-emergence test, herbicidal damage; set-up: key: 5=81-100%; 4=61-80%; 3=41-60%; 2=21-40%; 1=1-20%; 0=no damage to the plant; -=not tested; conditions: sprayed after 8 days cultivation, 1000 g/ha unless otherwise stated, evaluated after 13 days, five-point scale
Experimental: as §1

[10] = tested on: Ipomoea hederacea (IPOHE); assay: Post-emergence test, herbicidal damage; set-up: key: 5=81-100%; 4=61-80%; 3=41-60%; 2=21-40%; 1=1-20%; 0=no damage to the plant; -=not tested; conditions: sprayed after 8 days cultivation, 1000 g/ha unless otherwise stated, evaluated after 13 days, five-point scale
Experimental: as §1

Setaria faberi (SETFA) [11] = assay: Post-emergence test, herbicidal damage; set-up: key: 5=81-100%; 4=61-80%; 3=41-60%; 2=21-40%; 1=1-20%; 0=no damage to the plant; -=not tested; conditions: sprayed after 8 days cultivation, 1000 g/ha unless otherwise stated, evaluated after 13 days, five-point scale
Experimental: as §1

Zea mays (ZEAMX) [12] = assay: Post-emergence test, herbicidal damage; set-up: key: 5=81-100%; 4=61-80%; 3=41-60%; 2=21-40%; 1=1-20%; 0=no damage to the plant; -=not tested; conditions: sprayed after 8 days cultivation, 1000 g/ha unless otherwise stated, evaluated after 13 days, five-point scale
Experimental: as §1

| SMILES | percentage damage caused to the plant, AMAPA [1] | percentage damage caused to the plant, AMARE [2] | percentage damage caused to the plant, ECHCG [3] | percentage damage caused to the plant, ZEAMX (Zea mays (ZEAMX) [4]) | percentage damage caused to the plant, IPOHE [5] | percentage damage caused to the plant, SEFTA (Setaria faberi (SETFA) [6]) | percentage damage caused to the plant, AMAPA [7] | percentage damage caused to the plant, AMARE [8] | percentage damage caused to the plant, ECHCG [9] | percentage damage caused to the plant, IPOHE [10] | percentage damage caused to the plant, SEFTA (Setaria faberi (SETFA) [11]) | percentage damage caused to the plant, ZEAMX (Zea mays (ZEAMX) [12]) |
| --- | --- | --- | --- | --- | --- | --- | --- | --- | --- | --- | --- | --- |
| C=Cc1c(-c2ccc(Cl)c(Cl)c2)c(C(=O)O)c(=O)n(-c2ccc(Cl)cc2F)c1C [Compound 32, 1-(4-chloro-2-fluoro-phenyl)-4-(3,4-dichlorophenyl)-6-methyl-2-oxo-5-vinyl-pyridine-3-carboxylic acid] | 4 (4=61-80%) | 3 (3=41-60%) | 2 (2=21-40%) | 1 (1=1-20%) | 1 (1=1-20%) | 1 (1=1-20%) | 4 (4=61-80%) | 3 (3=41-60%) | 1 (1=1-20%) | 2 (2=21-40%) | 1 (1=1-20%) | 1 (1=1-20%) |
| Cc1c(Br)c(-c2ccc(Cl)c(Cl)c2)c(C(=O)O)c(=O)n1Cc1ccc(C#N)cc1F [Compound 33, 5-bromo-1-[(4-cyano-2-fluoro-phenyl)methyl]-4-(3,4-dichlorophenyl)-6-methyl-2-oxo-pyridine-3-carboxylic acid] | 3 (3=41-60%) | 3 (3=41-60%) | 1 (1=1-20%) | 1 (1=1-20%) | 1 (1=1-20%) | 1 (1=1-20%) | 3 (3=41-60%) | 3 (3=41-60%) | 1 (1=1-20%) | 1 (1=1-20%) | 1 (1=1-20%) | 1 (1=1-20%) |
| Cc1cc(-c2ccc(Cl)c(Cl)c2)c(C(=O)O)c(=O)n1-c1ccc(Cl)cc1F [Compound 13, 1-(4-chloro-2-fluoro-phenyl)-4-(3,4-dichlorophenyl)-6-methyl-2-oxo-pyridine-3-carboxylic acid] | 2 (2=21-40%) | 2 (2=21-40%) | 2 (2=21-40%) | 0 | 0 | 0 | 3 (3=41-60%) | 2 (2=21-40%) | 0 | 0 | 0 | 1 (1=1-20%) |
| Cc1c(Cl)c(-c2ccc(Cl)c(Cl)c2)c(C(=O)O)c(=O)n1Cc1ccc(F)cc1F [Compound 34, 5-chloro-4-(3,4-dichlorophenyl)-1-[(2,4-difluorophenyl)methyl]-6-methyl-2-oxo-pyridine-3-carboxylic acid] | 4 (4=61-80%) | 3 (3=41-60%) | 1 (1=1-20%) | 0 | 0 | 1 (1=1-20%) | 4 (4=61-80%) | 3 (3=41-60%) | 1 (1=1-20%) | 1 (1=1-20%) | 0 | 0 |
